Data as given in the supplement of paper PMC10307832.

What was measured:
Assay in all cases: relative viability (nuclei count vs DMSO), 5 days (fraction); higher = more cells survive
Tozasertib + Trametinib = compound: Cc1cc(Nc2cc(N3CCN(C)CC3)nc(Sc3ccc(NC(=O)C4CC4)cc3)n2)n[nH]1 [Tozasertib] + CC(=O)Nc1cccc(-n2c(=O)n(C3CC3)c(=O)c3c(Nc4ccc(I)cc4F)n(C)c(=O)c(C)c32)c1 [Trametinib] (partner 0.02 µM)
In short: (§1)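 Values are medians from duplicate plates. Each reflects relative viability, defined as the nuclei count of treated wells over that of vehicle wells. Lung cancer cell lines in 1536-well plates were pin-tool dosed one day after seeding with one drug alone or with a fixed anchor-drug dose plus five library-drug doses (not always all listed) in √10 steps, then fixed, stained and imaged at 4× after 5 days.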

Tozasertib + Crizotinib = compound: Cc1cc(Nc2cc(N3CCN(C)CC3)nc(Sc3ccc(NC(=O)C4CC4)cc3)n2)n[nH]1 [Tozasertib] + C[C@@H](Oc1cc(-c2cnn(C3CCNCC3)c2)cnc1N)c1c(Cl)ccc(F)c1Cl [Crizotinib] (partner 1 µM)
In short: as §1

Tozasertib + Pemetrexed = compound: Cc1cc(Nc2cc(N3CCN(C)CC3)nc(Sc3ccc(NC(=O)C4CC4)cc3)n2)n[nH]1 [Tozasertib] + Nc1nc2[nH]cc(CCc3ccc(C(=O)N[C@@H](CCC(=O)O)C(=O)O)cc3)c2c(=O)[nH]1 [Pemetrexed] (partner 0.2 µM)
In short: as §1

Tozasertib = compound: Cc1cc(Nc2cc(N3CCN(C)CC3)nc(Sc3ccc(NC(=O)C4CC4)cc3)n2)n[nH]1 [Tozasertib]
In short: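 MetaXpress counted nuclei in 4× images of lung cancer cell lines that had been fixed, permeabilised and Hoechst-stained in one step. Before that, cells in 1536-well plates were kept overnight at 37 °C, pinned with five √10-spaced library-drug doses on vehicle-anchored plates, and cultured 5 days without medium change. Viability takes treated-well nuclei over vehicle-well nuclei and uses the median across plates. Plates were accepted only at control CV below 25% and at least one doubling.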

Cell Line	relative viability (Tozasertib + Trametinib; first compound 0.01265 µM)	relative viability (Tozasertib + Trametinib; first compound 0.04 µM)	relative viability (Tozasertib + Trametinib; first compound 0.1265 µM)	relative viability (Tozasertib + Crizotinib; first compound 0.004 µM)	relative viability (Tozasertib + Crizotinib; first compound 0.04 µM)	relative viability (Tozasertib + Crizotinib; first compound 0.1265 µM)	relative viability (Tozasertib + Pemetrexed; first compound 0.004 µM)	relative viability (Tozasertib + Pemetrexed; first compound 0.01265 µM)	relative viability (Tozasertib + Pemetrexed; first compound 0.04 µM)	relative viability (Tozasertib + Pemetrexed; first compound 0.1265 µM)	relative viability (Tozasertib; 0.004 µM)	relative viability (Tozasertib; 0.01265 µM)	relative viability (Tozasertib; 0.04 µM)	relative viability (Tozasertib; 0.1 µM, anchor plate)	relative viability (Tozasertib; 0.1265 µM)	relative viability (Tozasertib + Crizotinib; first compound 0.01265 µM)	relative viability (Tozasertib + Trametinib; first compound 0.004 µM)
NCI-H1734	0.793	0.678	0.403	0.703	0.67	0.258	0.424	0.351	0.453	0.436	1.01	0.957	0.95	0.266	0.504		
HCC-44	1.03	1.22	1	0.861	0.801	0.705	0.677	0.552	0.604	0.599	1.02	0.903	1.01	0.974		0.891	
HCC-366	0.323	0.385	0.15		0.257	0.039	0.173	0.145	0.184	0.136	0.991	1.01	1.08	0.123	0.93	0.472	0.304
NCI-H596	0.877	0.826	0.622	1.09	1.01	0.79	0.549	0.477		0.473	0.993	0.883	1.01	0.919	0.988	0.949	0.992
COR-L 105	0.393	0.461	0.329		0.771	0.458	1.05	1.14	1.23	1.15	0.956	0.974	0.957	0.36	0.473	0.765	0.436
NCI-H1993	0.396	0.5	0.54	0.931	0.845	0.581	0.587	0.605	0.634	0.476	1.03	0.782	0.939	0.58	0.676	0.776	0.444
NCI-H1651	0.785	0.907		0.892	0.906	0.867	0.593	0.615	0.582	0.433	1.02	0.949	0.984	0.698	0.922	0.81	0.884
LCLC-103H	0.71	0.675		0.993	1.1	1.07	0.482	0.46	0.444	0.45	1.06	1.06	1.02	0.499	0.952	1.05	0.659
HCC-15	0.359	0.405	0.375	0.872	0.738	0.773	0.232	0.234	0.228	0.228	1.06	0.936	1.04	0.393	0.687	0.85	0.386
ChaGo-K-1	0.838	0.895	0.736	1.19	0.957	0.331	0.255	0.268	0.254	0.264	1.06	1	1	0.233	0.858	1.12	0.879
HCC-827	0.481	0.663	0.512	1.02	0.927	0.719	0.254	0.239	0.293	0.262	1.1	1.04	1.09	0.414	0.976	0.82	0.493
HOP-62	0.401	0.401	0.372	1.03	0.941	0.776	0.396	0.299	0.32	0.362	1.02	0.992	0.987	0.398	0.88	0.964	0.356
NCI-H2087	0.187	0.218	0.126	0.837	0.804	0.658	0.72	0.698	0.671	0.688	1.16	1.02	1.11	0.254	0.581	0.865	0.185
NCI-H3122	0.244	0.239	0.23	0.26	0.289	0.277	0.193	0.214	0.191	0.218	0.965	0.976		0.421	1.01	0.287	0.198
PC-3 [JPC-3]	0.72	0.762	0.715	0.884	0.94	0.945	1.08	1.01	1.21	0.919	0.918	0.981	1.05	0.88	0.733	0.973	0.502
NCI-H1650	0.58	0.624	0.175		0.919		0.334	0.374	0.381	0.385	1.03	0.918	1.09	0.418	0.502	1.01	0.482
SK-MES-1	0.557	0.713	0.616	1.04	0.94	0.901	0.907	0.892	1.02	0.769	1.03	1	1.1	0.885	0.955	0.929	0.589
NCI-H1792	0.412	0.754	0.35	0.951	1.16	0.913	0.928	0.616	0.895	0.515	1.16	0.781	1.01		0.613	0.9	0.481
NCI-H2126	0.535	0.632	0.552	1.17	1.09	0.996	0.688	0.736		0.729	0.996	1.06	1.04	0.846	0.925	1.03	0.562

Cell Line	relative viability (Tozasertib + Trametinib; first compound 0.01265 µM)	relative viability (Tozasertib + Trametinib; first compound 0.04 µM)	relative viability (Tozasertib + Trametinib; first compound 0.1265 µM)	relative viability (Tozasertib + Crizotinib; first compound 0.004 µM)	relative viability (Tozasertib + Crizotinib; first compound 0.04 µM)	relative viability (Tozasertib + Crizotinib; first compound 0.1265 µM)	relative viability (Tozasertib + Pemetrexed; first compound 0.004 µM)	relative viability (Tozasertib + Pemetrexed; first compound 0.01265 µM)	relative viability (Tozasertib + Pemetrexed; first compound 0.04 µM)	relative viability (Tozasertib + Pemetrexed; first compound 0.1265 µM)	relative viability (Tozasertib; 0.004 µM)	relative viability (Tozasertib; 0.01265 µM)	relative viability (Tozasertib; 0.04 µM)	relative viability (Tozasertib; 0.1 µM, anchor plate)	relative viability (Tozasertib; 0.1265 µM)	relative viability (Tozasertib + Crizotinib; first compound 0.01265 µM)	relative viability (Tozasertib + Trametinib; first compound 0.004 µM)
A-427	0.68	0.818	0.509	0.882	0.788	0.469	1		0.973	0.75	1.04	0.911	1.08	0.212	0.505	0.985	0.783
NCI-H2170	0.904	0.94	0.818	1.15	1.02	0.736	0.289	0.241	0.293	0.271	0.964	1.01	0.954	0.755	0.893	1.19	0.896
NCI-H23	0.435	0.426	0.223	0.45	0.421	0.27	0.888	0.659	0.695	0.319	1.05	0.953	0.885	0.365	0.501	0.459	0.356
RERF-LC-KJ	0.841	0.862		0.815	0.734	0.689	0.465	0.442	0.486	0.361	0.942	0.914	1.04	0.491	0.895	0.792	0.807
NCI-H358	0.0985	0.132	0.0814	0.457	0.261	0.228	0.179	0.164	0.181	0.145	1		0.977	0.109	0.37	0.345	0.137
LOU-NH91	0.811	0.838	0.793	0.619	0.754	0.722	0.421	0.409	0.372	0.39	0.787	0.918	1.1	0.659	0.9	0.703	0.692
NCI-H1915	0.298	0.336	0.264	0.98	0.873	0.721	0.46	0.477	0.474	0.412	1.04	0.986	0.934	0.435	0.795	0.889	0.261
NCI-H650	0.918	0.894	0.823	0.8	0.574	0.397	1.01	0.897	0.878	0.82	0.993	0.934	0.918	0.724	0.606	0.73	1.06
NCI-H661	0.579	0.618	0.336	1.06	0.885	0.605	1.01	0.833	0.933	0.561	0.976	0.94	1	0.367	0.68	1.05	0.564
NCI-H1975	0.321	0.826	0.322	1.05	0.853	0.604	0.317	0.289	0.307	0.272	1.04	0.91	1.06	0.759	0.85	1.03	0.385
LK-2	0.646	0.739	0.353	0.19	0.239	0.244	0.307	0.354	0.287	0.134	1.09	0.847	1.09	0.176	0.489		0.859
HCC-78	0.478	0.824	0.632	0.333	0.356	0.288	0.938	0.901	0.919	0.881	1.1	0.819	1.09	0.464	0.806	0.324	0.821
NCI-H2347	0.299	0.317	0.256	0.722		0.723	0.44	0.461	0.45	0.432	1.03	1	1.08	0.573	0.941	0.71	0.279
NCI-H2228	0.503	0.513	0.345	0.487	0.452	0.186	0.319	0.32	0.376	0.322	1.08	1.07	1.03	0.265	0.607		0.485
COR-L23	0.599	0.609	0.332	0.695	0.453	0.412	0.206	0.206	0.187	0.179	1.02	0.958	0.947	0.203	0.701	0.667	0.613
NCI-H838	0.453	0.657	0.246	0.939	0.898	0.706	0.263	0.257	0.249	0.232	0.994	0.951	1.06	0.265	0.683	0.863	0.528
LU99A	0.504	0.494	0.373	0.627	0.466	0.27	0.165	0.155	0.207	0.193	1.05	0.904	0.824	0.282	0.594	0.514	0.545
SK-LU-1	0.505	0.567	0.461	0.932		0.889	1.05	0.961	1.09	0.964	1.09	1.11	1.14	0.334	0.964	0.977	0.447
NCI-H2405	0.658	0.652	0.611	0.844	0.857	0.67	1.01	1.12	0.973	0.894	1.04	1.01	0.992	0.731	0.885	0.83	0.649
